In patent US20220133702A1, “CYSTIC FIBROSIS TRANSMEMBRANE CONDUCTANCE REGULATOR MODULATORS FOR TREATING AUTOSOMAL DOMINANT POLYCYSTIC KIDNEY DISEASE” (The Johns Hopkins University, priority 2020, published 2022):
Entries after “also recorded” stand apart in the source; their conditions may differ.

Assays:
PN (pkd1-null) cells = assay: In vitro cystogenesis (3D Matrigel culture, cyst size by cross-sectional area); assay type: cell-based, mouse
Protocol: Cells were treated with DMSO (control), VX-809, or C18 (10 μM) plus or minus forskolin on Days 0, 2, 4, 6, 8, 10, 12, 14. […] Cells were treated with DMSO (control), C18 or VX-809 (10 μM) from 9-16 (7) days. All pictures were taken on Day 16. Columns represent means±SEM (n=6). The average cyst size from the control group was considered 100%, and the sizes of the rest of the cysts were compared with this average. ****P<0.0001. Cyst size was estimated from the cross-sectional area;
VX-809 Reduces Cyst Growth in Vitro Experiments were conducted using a model ADPKD cell line (PH=pkd1+/− heterozygote control; PN=pkd−/− knockout), clonally isolated from single parental clones obtained from a pkdf1/− mouse that was manufactured in an ImmortoMouse containing the H-2Kb-tsA58 gene. The null cells (PN) stably express the Cre recombinase. All the cells proximal tubule origin. To determine how VX-809 reduces cyst growth, cysts were grown in the presence of forskolin (FIG. 2). […] Taken together with the animal data provided in FIG. 1, these in vitro results clearly indicate that CFTR correctors are effective in reducing cyst growth.
In vitro cytogenesis. To induce differentiation, cells were kept at 37° C. for at least 6 days without gamma-interferon. After one week, the cells were used for 3D culture or other experiments. Growth factor-reduced Matrigel #354230 (Corning) was used, and cell dilutions were prepared so that there were approximately 6,000 cells in 25 μl of medium; 25 μl of cell preparation was mixed with 50 μl of Matrigel. Pictures were taken with a Zeiss Axio microscope. Cystic areas were analyzed with ImageJ (provided by the NIH).

[1] = test system: kidneys of Pkd1^fl/fl; Pax8^rtTA; TetO-cre mice; assay: Ki67 staining of kidney sections (proliferation); assay type: in vivo, mouse; conditions: 30 mg/kg, vs DMSO-treated mice
From the text: FIG. 3A, FIG. 3B, FIG. 3C, and FIG. 3D show cell proliferation is reduced by VX-809. (FIG. 3A-FIG. 3B) Proliferation in kidneys of Pkd1^fl/fl; Pax8^rtTA; TetO-cre mice. Representative images of Ki67 (a cellular marker for proliferation) staining of PN21 kidney sections from DMSO- and VX-809-treated mice. Arrows indicate Ki67-positive cells. Pictures were acquired with a Zeiss microscope equipped with 20× objective. (FIG. 3C) Summary data for Ki67-positive cells. Columns represent averages±standard errors of DMSO (vehicle)-treated (n=3) and VX-809-treated (n=3) mice. Statistical analysis was performed using a two-tailed Student's t test. (FIG. 3D) Proliferation in PN cells. PN cells were treated with VX-809 or DMSO). The bromodeoxyuridine (BrdU) concentration in the cells was measured by using a BrdU cell proliferation assay kit (Millipore Sigma#2750) according to the manufacturer's protocol. Columns represent averages±SEs of the OD of BrdU at 450/550 […]. Data were analyzed using Student's t-test, with n=5-7. Methods were described previously (62). *P>0.05; **P<0.01;
A hallmark of the cysts in ADPKD is an increase in proliferation in response to cAMP. Therefore, it was determined whether VX-809 would affect proliferation.

HSP27, 70, 90 and HSP40 = assay: Western blot of heat shock proteins in kidney tissue lysates; assay type: in vivo; conditions: 30 mg/kg BW, cyst-induced mouse kidneys
Protocol: FIG. 7A, FIG. 7B, FIG. 7C, FIG. 7D, FIG. 7E, and FIG. 7F show chaperone expression is altered in mice by VX-809. (FIG. 7A-FIG.7B) Representative Western blot images of HSP27, 70, 90 and HSP40 in lysates of kidney tissue from no cyst induced (ND), cyst induced with Doxycycline (D) or cyst induced pkd−/− mice treated with VX-809 (D+VX-809) 30 mg/kg BW. (FIG. 7C, FIG. 7D, FIG. 7E, and FIG. 7F). Columns represent averages±standard errors of HSP27, 70, 90 and HSP40 expression. Data were analyzed by non-parametric t-test. n=4 for each treated and control groups. Black lines between lanes represent representative experiments from the same gel. *P<0.05; **P<0.01;
To facilitate their growth in the kidney, cysts have developed an altered network of proteins that most likely serves to protect them from stress . Next, it was determined whether VX-809 would alter the levels of Hsps in pkd−/− mice and in PN cells. […] Hsp 27, 70 and 90 are all elevated in cystic kidneys compared to normal controls. […] There is no change in Hsp40. […] Both sets of data are consistent with an alteration in the heat shock response to cyst growth.

[2] = test system: PC2 in Pkd1^fl/fl; Pax8^rtTA; TetO-cre mice; assay: Immunoblot of PC2 protein in kidney tissue, PC1-null model; assay type: in vivo, mouse; conditions: doxycycline plus VX-809
Protocol: (§1) The levels of PC2 protein were analyzed in two mouse models of ADPKD: Pkd1^fl/fl; Pax8^rtTA; TetO-cre, which is PC1 null, and the Pkd1^R3277C/R3277C (pkd1^RC/RC) which has a missense mutation in PC1. Pkd1^RC/RC mice develop a consistent, slowly progressing polycystic kidney disease. Pkd1^RC/RC mice were treated daily with VX-809, beginning at one month, and euthanized at 6 months.
Mice were treated without doxycycline (ND), with doxycycline plus DMSO (D), or with doxycycline plus VX809 (D+VX809), as indicated. Three mice were analyzed for each treatment.
In the Pkd1^fl/fl mice, doxycycline-induced cyst formation increases PC2 protein.

PC2 in Pkd1^RC/RC mice = assay: Immunoblot of PC2 protein in kidney tissue, missense model; assay type: in vivo, mouse; conditions: treated daily from one month to 6 months
Protocol: as §1
Wild-type mice were treated without doxycycline (Wt), and Pkd1^RC/RC mice were treated with doxycycline plus DMSO (RC) or with doxycycline plus VX809 (RC+VX809), as indicated. Three mice were analyzed for each treatment.
In Pkd1^RC/RC mice, doxycycline-induced cyst formation decreases PC2 protein.

Cc1ccc(NC(=O)C2(c3ccc4c(c3)OC(F)(F)O4)CC2)nc1-c1cccc(C(=O)O)c1 [VX-809, lumacaftor]
size of established cysts (PN (pkd1-null) cells; 10 μM from Days 9-16, in the presence of forskolin): reduces the size of established cysts
cyst growth (PN (pkd1-null) cells; 10 μM on Days 0, 2, 4, 6, 8, 10, 12, 14, plus or minus forskolin): reduce cyst growth equally well; also recorded: inhibits cyst growth
cyst size (PN (pkd1-null) cells; every other day or Days 9-16, in the presence of forskolin): dramatically reducing cyst size
cell proliferation (Ki67-positive cells) [1]: significantly inhibit cell proliferation
Hsp27 expression (HSP27, 70, 90 and HSP40): significantly less expression
Hsp40 expression (HSP27, 70, 90 and HSP40): no change
Hsp70 expression (HSP27, 70, 90 and HSP40): significantly less expression
Hsp90 expression (HSP27, 70, 90 and HSP40): significantly less expression
PC2 protein expression (normalized to vinculin) [2]: restores PC2 expression to near-normal values
PC2 protein expression (normalized to vinculin) (PC2 in Pkd1^RC/RC mice): higher levels of PC2 expression
